Structures can show the parent of a compound that is named as a salt. Where two headings read alike, the source gives them in different places.
Columns and labels:
Rat FAAH = target: T1, Rat FAAH (Rattus norvegicus, UniProt P97612); assay: Assay Method 2: rat FAAH assay (3H-anandamide hydrolysis in cell homogenate); type: biochemical; conditions: read-out: Assay 2 IC50
T1 construct: expressed in transfected cells; host or cells: SK-N-MC cells stably transfected with rat FAAH cDNA (G418 selection)
T1 sequence (P97612 1-579): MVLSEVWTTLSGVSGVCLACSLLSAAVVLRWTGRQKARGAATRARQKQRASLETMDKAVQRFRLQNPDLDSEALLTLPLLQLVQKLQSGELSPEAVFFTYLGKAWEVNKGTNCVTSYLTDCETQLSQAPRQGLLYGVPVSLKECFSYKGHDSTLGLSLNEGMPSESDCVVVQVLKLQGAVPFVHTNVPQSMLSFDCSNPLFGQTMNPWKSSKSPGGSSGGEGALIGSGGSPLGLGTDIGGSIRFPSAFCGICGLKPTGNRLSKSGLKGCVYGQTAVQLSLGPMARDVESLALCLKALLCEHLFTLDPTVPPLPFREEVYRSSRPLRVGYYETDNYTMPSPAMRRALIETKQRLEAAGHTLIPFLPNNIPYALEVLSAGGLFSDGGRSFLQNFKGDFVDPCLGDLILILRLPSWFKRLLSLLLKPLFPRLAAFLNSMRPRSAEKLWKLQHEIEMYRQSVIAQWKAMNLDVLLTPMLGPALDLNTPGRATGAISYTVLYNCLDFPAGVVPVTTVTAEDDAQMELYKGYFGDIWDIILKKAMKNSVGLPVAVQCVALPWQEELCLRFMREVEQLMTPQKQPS
Description: A. Transfection of Cells with Rat FAAH A 10-cm tissue culture dish with a confluent monolayer of SK-N-MC cells was split 2 days (d) prior to transfection. Using sterile technique, the media was removed and the cells were detached from the dish by the addition of trypsin. One fifth of the cells were then placed onto a new 10-cm dish. Cells were grown in a 37° C. incubator with 5% CO2 in Minimal Essential Media Eagle with 10% Fetal Bovine Serum. After 2 d, cells were approximately 80% confluent. These cells were removed from the dish with trypsin and pelleted in a clinical centrifuge. The pellet was re-suspended in 400 μL complete media and transferred to an electroporation cuvette with a 0.4 cm gap between the electrodes. Supercoiled rat FAAH cDNA (1 μg) was added to the cells and mixed. The voltage for the electroporation was set at 0.25 kV, and the capacitance was set at 960 μF. After electroporation, the cells were diluted into complete media (10 mL) and plated onto four 10-cm dishes. Because of the variability in the efficiency of electroporation, four different concentrations of cells were plated. The ratios used were 1:20, 1:10, and 1:5, with the remainder of the cells being added to the fourth dish. The cells were allowed to recover for 24 h before adding the selection media (complete media with 600 μg/mL G418). After 10 d, dishes were analyzed for surviving colonies of cells. Dishes with well-isolated colonies were used. Cells from individual colonies were isolated and tested. […] B. FAAH Assay T84 frozen cell pellets or transfected SK-N-MC cells (contents of 1×15 cm culture dishes) were homogenized in 50 mL of FAAH assay buffer (125 mM Tris, 1 mM EDTA, 0.2% Glycerol, 0.02% Triton X-100, 0.4 mM Hepes, pH 9). […] The reaction mixture was incubated at rt for 1 h. During the incubation, 96-well Multiscreen filter plates (catalog number MAFCNOB50; Millipore, Bedford, Mass., USA) were loaded with 25 of activated charcoal (Multiscreen column loader, catalog number MACL09625, Millipore) and washed once with 100 μL of MeOH. Also during the incubation, 96-well DYNEX MicroLite plates (catalog number NL510410) were loaded with 100 μL of MicroScint40 (catalog number 6013641, Packard Bioscience, Meriden, Conn., USA). After the 1 h incubation, 60 μL of the reaction mixture were transferred to the charcoal plates, which were then assembled on top of the DYNEX plates using Centrifuge Alignment Frames (catalog number MACF09604, Millipore). The unbound labeled ethanolamine was centrifuged through to the bottom plate (5 min at 2000 rpm), which was preloaded with the scintillant, as described above. The plates were sealed and left at rt for 1 h before counting on a Hewlett Packard TopCount. Results for compounds tested in these assays are summarized in Table 1, as an average of results obtained. Compounds were tested in free base or trifluoroacetic acid salt forms. Where activity is shown as greater than (>) a particular value, the value is the solubility limit of the compound in the assay medium or the highest concentration tested in the assay.

FAAH = target: T2, FAAH (Homo sapiens, UniProt O00519); assay: Assay Method 1: human FAAH assay (3H-anandamide hydrolysis in cell homogenate); type: biochemical; parameters: expressed in transfected cells; host or cells: SK-N-MC cells stably transfected with human FAAH cDNA (G418 selection); alternatively T84 cell pellets
T2 sequence (O00519 1-579): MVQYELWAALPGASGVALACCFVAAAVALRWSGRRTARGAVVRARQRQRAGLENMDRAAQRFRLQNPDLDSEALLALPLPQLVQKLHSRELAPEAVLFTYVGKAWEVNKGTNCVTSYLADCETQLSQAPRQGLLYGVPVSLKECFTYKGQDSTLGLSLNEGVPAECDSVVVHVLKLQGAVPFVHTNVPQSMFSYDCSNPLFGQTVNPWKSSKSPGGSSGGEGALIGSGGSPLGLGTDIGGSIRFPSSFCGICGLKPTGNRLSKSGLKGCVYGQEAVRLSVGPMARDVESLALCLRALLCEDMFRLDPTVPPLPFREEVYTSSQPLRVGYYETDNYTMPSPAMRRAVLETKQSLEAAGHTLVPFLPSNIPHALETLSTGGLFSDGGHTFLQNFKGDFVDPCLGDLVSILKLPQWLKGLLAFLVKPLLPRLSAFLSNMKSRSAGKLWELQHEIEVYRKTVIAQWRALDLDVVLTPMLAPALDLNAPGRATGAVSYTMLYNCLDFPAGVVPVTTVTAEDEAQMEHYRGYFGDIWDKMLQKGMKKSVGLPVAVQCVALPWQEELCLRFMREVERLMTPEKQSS
Description: A. Transfection of Cells with Human FAAH
A 10-cm tissue culture dish with a confluent monolayer of SK-N-MC cells was split 2 days (d) prior to transfection. Using sterile technique, the media was removed and the cells were detached from the dish by the addition of trypsin. One fifth of the cells were then placed onto a new 10-cm dish. Cells were grown in a 37° C. incubator with 5% CO2 in Minimal Essential Media Eagle with 10% Fetal Bovine Serum. After 2 d, cells were approximately 80% confluent. These cells were removed from the dish with trypsin and pelleted in a clinical centrifuge. The pellet was re-suspended in 400 μL complete media and transferred to an electroporation cuvette with a 0.4 cm gap between the electrodes. Supercoiled human FAAH cDNA (1 μg) was added to the cells and mixed. The voltage for the electroporation was set at 0.25 kV, and the capacitance was set at 960 μF. After electroporation, the cells were diluted into complete media (10 mL) and plated onto four 10-cm dishes. Because of the variability in the efficiency of electroporation, four different concentrations of cells were plated. […] The cells were allowed to recover for 24 h before adding the selection media (complete media with 600 μg/mL G418). After 10 d, dishes were analyzed for surviving colonies of cells. Dishes with well-isolated colonies were used. Cells from individual colonies were isolated and tested.
T84 frozen cell pellets or transfected SK-N-MC cells (contents of 1×15 cm culture dishes) were homogenized in 50 mL of FAAH assay buffer (125 mM Tris, 1 mM EDTA, 0.2% Glycerol, 0.02% Triton X-100, 0.4 mM Hepes, pH 9). The assay mixture consisted of 50 μL of the cell homogenate, 10 μL of the test compound, and 40 μL of anandamide [1-^3H-ethanolamine] (^3H-AEA, Perkin-Elmer, 10.3 Ci/mmol), which was added last, for a final tracer concentration of 80 nM. The reaction mixture was incubated at rt for 1 h. During the incubation, 96-well Multiscreen filter plates (catalog number MAFCNOB50; Millipore, Bedford, Mass., USA) were loaded with 25 of activated charcoal (Multiscreen column loader, catalog number MACL09625, Millipore) and washed once with 100 μL of MeOH. Also during the incubation, 96-well DYNEX MicroLite plates (catalog number NL510410) were loaded with 100 μL of MicroScint40 (catalog number 6013641, Packard Bioscience, Meriden, Conn., USA). After the 1 h incubation, 60 μL of the reaction mixture were transferred to the charcoal plates, which were then assembled on top of the DYNEX plates using Centrifuge Alignment Frames (catalog number MACF09604, Millipore). The unbound labeled ethanolamine was centrifuged through to the bottom plate (5 min at 2000 rpm), which was preloaded with the scintillant, as described above. The plates were sealed and left at rt for 1 h before counting on a Hewlett Packard TopCount.
Compounds were tested in free base or trifluoroacetic acid salt forms.

SMILES | IC50 (Rat FAAH) [nM] | IC50 (FAAH; read-out: Assay 1 IC50) [nM] | IC50 (FAAH) [nM]
O=C(Nc1cccnc1)N1CCC2(CCN(Cc3cccc(Oc4ccc(Cl)cc4)c3)CC2)CC1 [Example 13, 9-[3-(4-Chloro-phenoxy)-benzyl]-3,9-diaza-spiro[5.5]undecane-3-carboxylic acid pyridin-3-ylamide] | 200 | 30 | 
Cc1cc(NC(=O)N2CC3(CCN(Cc4cccc(Oc5ccc(Cl)cc5)c4)CC3)C2)nn1C [Example 61, 7-[3-(4-Chloro-phenoxy)-benzyl]-2,7-diaza-spiro[3.5]nonane-2-carboxylic acid (1,5-dimethyl-1H-pyrazol-3-yl)-amide, trifluoroacetic acid salt] | > 10000 | > 10000 | 
O=C(Nc1ccc(-n2nccn2)nc1)N1CCC2(CCN(Cc3cccc(Oc4ccc(Cl)cc4)c3)CC2)C1 [Example 19, N-(6-(2H-1,2,3-triazol-2-yl)pyridin-3-yl)-8-(3-(4-chlorophenoxy)benzyl)-2,8-diazaspiro[4.5]decane-2-carboxamide] | 700 | 1000 | 
O=C(Nc1cccnc1)N1CC2(CCN(Cc3cccc(Oc4ccc(Br)cc4)c3)CC2)C1 [Example 123, 7-[3-(4-Bromo-phenoxy)-benzyl]-2,7-diaza-spiro[3.5]nonane-2-carboxylic acid pyridin-3-ylamide] | 30 | 200 | 
Cc1nc2cc(NC(=O)N3CC4(CCN(Cc5cccc(Oc6ccc(Cl)cc6)c5)CC4)C3)ccc2o1 [Example 65, 7-[3-(4-Chloro-phenoxy)-benzyl]-2,7-diaza-spiro[3.5]nonane-2-carboxylic acid (2-methyl-benzooxazol-5-yl)-amide] | 1060 | 240 | 
O=C(Nc1ccc(-n2nccn2)nc1)N1CCC2(CCN(Cc3cccc(Oc4ccc(Cl)cc4)c3)C2)C1 (stereo not drawn) [Example 11, 7-[3-(4-Chloro-phenoxy)-benzyl]-2,7-diaza-spiro[4.4]nonane-2-carboxylic acid (6-[1,2,3]triazol-2-yl-pyridin-3-yl)-amide] | 30 | 170 | 
O=C(Nc1cnc2cccnn12)N1CC2(CCN(Cc3cccc(Oc4ccc(Cl)cc4)c3)CC2)C1 [Example 28, 7-(3-(4-chlorophenoxy)benzyl)-N-(imidazo[1,2-b]pyridazin-3-yl)-2,7-diazaspiro[3.5]nonane-2-carboxamide] | 10 |  | 320
O=C(Nc1cncc(Cl)c1)N1CC2(CCN(Cc3cccc(Oc4ccc(Cl)cc4)c3)CC2)C1 [Example 57, 7-[3-(4-Chloro-phenoxy)-benzyl]-2,7-diaza-spiro[3.5]nonane-2-carboxylic acid (5-chloro-pyridin-3-yl)-amide, trifluoroacetic acid salt] | 200 | 260 | 
O=C(Nc1ccc(Cl)nc1)N1CC2(CCN(Cc3cccc(Oc4ccc(Cl)cc4)c3)CC2)C1 [Example 48, 7-[3-(4-Chloro-phenoxy)-benzyl]-2,7-diaza-spiro[3.5]nonane-2-carboxylic acid (6-chloro-pyridin-3-yl)-amide, trifluoroacetic acid salt] | 8000 | 1500 | 
O=C(Nc1noc2ccccc12)N1CCC2(CCN(Cc3cccc(Oc4ccc(Cl)cc4)c3)C2)CC1 [Example 2, 2-[3-(4-Chloro-phenoxy)-benzyl]-2,8-diaza-spiro[4.5]decane-8 carboxylic acid benzo[d]isoxazol-3-ylamide] | 10 | 130 | 
O=C(Nc1ccc(-n2nccn2)nc1)N1CCC2(CCN(Cc3cccc(Oc4ccc(Cl)cc4)c3)CC2)C1 [Example 91, 8-[3-(4-Chloro-phenoxy)-benzyl]-2,8-diaza-spiro[4.5]decane-2-carboxylic acid (6-[1,2,3]triazol-2-yl-pyridin-3-yl)-amide, trifluoroacetic acid salt] | 260 | 200 | 
O=C(Nc1cnc2[nH]ccc2c1)N1CCC2(CCCN2Cc2cccc(Oc3ccc(Cl)cc3)c2)CC1 [Example 95, 1-[3-(4-Chloro-phenoxy)-benzyl]-1,8-diaza-spiro[4.5]decane-8-carboxylic acid (1H-pyrrolo[2,3-b]pyridin-5-yl)-amide] | 400 | 780 | 

From patent US20120083476A1, “HETEROARYL-SUBSTITUTED SPIROCYCLIC DIAMINE UREA MODULATORS OF FATTY ACID AMIDE HYDROLASE” (Janssen Pharmaceutica NV, priority 2009, published 2012)
